Data taken from US10259847B2, “Beta-hairpin peptidomimetics” (POLYPHOR AG, priority 2014, dated 2019).
Read-outs that look alike come from different tables or passages of the source. Where a SMILES comes first, the peptide text is derived from it. Bridges are numbered along the chain shown (N, C = ends). [ ]: non-standard residue; d: D form. Tle = CC(C)(C)[C@H](N)C(=O)O; dDab = NCC[C@@H](N)C(=O)O; NMeA = CN[C@@H](C)C(=O)O; Orn = NCCC[C@H](N)C(=O)O; Dab = NCC[C@H](N)C(=O)O; dAze = O=C(O)[C@H]1CCN1; Dap = NC[C@H](N)C(=O)O

Assays:
Type in all cases: cell-based
[1] = system: Acinetobacter baumannii DSM 30008
Experimental: (§1) Stock solutions were kept at +4° C., light protected.
(§2) The selective antimicrobial activities of the peptides were determined in 96-well plates (Greiner, polystyrene) by the standard NCCLS broth microdilution method (National Committee for Clinical Laboratory Standards 1993. Methods for dilution antimicrobial susceptibility tests for bacteria that grow aerobically, 3rd ed. Approved standard M7-A6; National Committee for Clinical laboratory standards, Wayne, Pa.) with slight modifications. Inocula of the microorganisms were diluted into Mueller-Hinton II (MH, cation adjusted) broth and compared with a 0.5 McFarland standard to give appr. 10^6 colony forming units (CFU)/mL. Aliquots (90 μl) of inoculate were added to 10 μl of MH broth+P-80 (Polysorbate 80, 0.002% final concentration) containing the peptide in serial two-fold dilutions. The following microorganisms were used to determine antibiotic selectivity of the peptides: Escherichia coli ATCC 25922, Klebsiella pneumoniae ATCC 13883 and Acinetobacter baumannii DSM 30008.

[2] = system: Escherichia coli ATCC 25922
Experimental: as §1, §2

[3] = system: Klebsiella pneumoniae ATCC 13883
Experimental: as §1, §2

[4] = system: human red blood cells (hRBC); assay: Hemolysis of human red blood cells
Experimental: as §1
Percent hemolysis was calculated as follows: (OD540peptide/OD540H2O)×100%.

[5] = Mueller-Hinton broth II, 0.002% P-80, 18-20 hours at 35° C.

SMILES	Acinetobacter baumannii DSM 30008 MIC ([1]; DSM 30008) [µg/mL]	Escherichia coli ATCC 25922 MIC ([2]; ATCC 25922) [µg/mL]	Klebsiella pneumoniae ATCC 13883 MIC ([3]; ATCC 13883) [µg/mL]	Hemolysis at 100 μg/mL ([4]; red cells of human, 1 h, 100) [%]	Acinetobacter baumannii DSM 30008 MIC [1, 5] [µg/mL]	Escherichia coli ATCC 25922 MIC [2, 5] [µg/mL]	Klebsiella pneumoniae ATCC 13883 MIC [3, 5] [µg/mL]	Hemolysis at 100 μg/mL ([4]; 100 μg/mL, 20% hRBC (v/v), 1 h at 37° C.) [%]
CC(C)[C@@H]1NC(=O)[C@@H]2CCCN2C(=O)[C@H]2CCN2C(=O)[C@H]([C@@H](C)O)NC(=O)[C@H](CO)NC(=O)[C@H](C(C)(C)C)NC(=O)[C@H](CCN)NC(=O)[C@H](Cc2c[nH]c3ccccc23)NC(=O)[C@H](CCN)NC(=O)[C@@H](CCN)NC(=O)[C@H](CN)NC(=O)[C@H](CCN)NC(=O)[C@H](Cc2ccc(O)cc2)NC(=O)[C@H](CN)NC1=O [Example 41, cyclo(-Val-Dap-Tyr-Dab-Dap-^DDab-Dab-Trp-Dab-tBuGly-Ser-Thr-^DAzt-Pro-)] (cyclo([Dab][Dap][dDab][Dab]W[Dab][Tle]ST[dAze]PV[Dap]Y))	1	0.5	0.25	1				
CC(C)C[C@@H]1NC(=O)[C@H](CCN)NC(=O)[C@H]2CCCN2C(=O)[C@H](C(C)C)NC(=O)[C@@H]2CSSC[C@H](NC1=O)C(=O)N[C@@H](Cc1ccc(O)cc1)C(=O)N[C@@H](C)C(=O)N[C@@H](CCN)C(=O)N[C@@H](CCN)C(=O)N[C@@H](CCN)C(=O)N[C@@H](Cc1c[nH]c3ccccc13)C(=O)N[C@@H](C)C(=O)N[C@@H](C(C)C)C(=O)N2 [Example 1, cyclo(-Leu-Cys-Tyr-Ala-Dab-Dab-Dab-Trp-Ala-Val-Cys-Val-^DPro-Dab-)] (HELM PEPTIDE1{A.[Dab].[Dab].[Dab].W.A.V.C.V.[dP].[Dab].L.C.Y}$PEPTIDE1,PEPTIDE1,8:R3-13:R3|PEPTIDE1,PEPTIDE1,1:R1-14:R2$$$V2.0)					2.5	4	2	2
CC(C)C[C@@H]1NC(=O)[C@@H]2CCCN2C(=O)[C@H]2CCCN2C(=O)[C@H](CO)NC(=O)[C@@H]2CC(=O)NC[C@H](NC1=O)C(=O)N[C@@H](Cc1ccc(O)cc1)C(=O)N[C@@H](CCN)C(=O)N[C@@H](CCCN)C(=O)N[C@H](CCN)C(=O)N[C@@H](CCN)C(=O)N[C@@H](Cc1c[nH]c3ccccc13)C(=O)N[C@@H](CCN)C(=O)N[C@@H](C(C)(C)C)C(=O)N2 [Example 36, cyclo(-Leu-Dap-Tyr-Dab-Orn-^DDab-Dab-Trp-Dab-tBuGly-Asp-Ser-^DPro-Pro-)] (cyclo(L[Dap]Y[Dab][Orn][dDab][Dab]W[Dab][Tle]DS[dP]P); lactam 2-11)	1.5	0.5	0.125	4.5				
CC(C)C[C@@H]1NC(=O)[C@@H]2CCCN2C(=O)[C@H]2CCCN2C(=O)[C@H](CO)NC(=O)[C@@H]2CNC(=O)CC[C@H](NC1=O)C(=O)N[C@@H](Cc1ccc(O)cc1)C(=O)N[C@@H](CCN)C(=O)N[C@@H](CCCN)C(=O)N[C@H](CCN)C(=O)N[C@@H](CCN)C(=O)N[C@@H](Cc1c[nH]c3ccccc13)C(=O)N[C@@H](CCN)C(=O)N[C@@H](C(C)(C)C)C(=O)N2 [Example 34, cyclo(-Leu-Glu-Tyr-Dab-Orn-^DDab-Dab-Trp-Dab-tBuGly-Dap-Ser-^DPro-Pro-)] (cyclo(LEY[Dab][Orn][dDab][Dab]W[Dab][Tle][Dap]S[dP]P); lactam 2-11)	1	0.5	0.5	1				
CC(C)C[C@@H]1NC(=O)[C@@H]2CCCN2C(=O)[C@H]2CCCN2C(=O)[C@H](CO)NC(=O)[C@@H]2CCC(=O)NCC[C@H](NC1=O)C(=O)N[C@@H](Cc1ccc(O)cc1)C(=O)N[C@@H](CCN)C(=O)N[C@@H](CCCN)C(=O)N[C@H](CCN)C(=O)N[C@@H](CCN)C(=O)N[C@@H](Cc1c[nH]c3ccccc13)C(=O)N[C@@H](CCN)C(=O)N[C@@H](C(C)(C)C)C(=O)N2 [Example 30, cyclo(-Leu-Dab-Tyr-Dab-Orn-^DDab-Dab-Trp-Dab-tBuGly-Glu-Ser-^DPro-Pro-)] (HELM PEPTIDE1{L.[Dab].Y.[Dab].[Orn].[NCC[C@@H](N[*:1])C(=O)[*:2]].[Dab].W.[Dab].[CC(C)(C)[C@H](N[*:1])C(=O)[*:2]].E.S.[dP].P}$PEPTIDE1,PEPTIDE1,2:R3-11:R3|PEPTIDE1,PEPTIDE1,1:R1-14:R2$$$V2.0)	1	1	2	0.5				
CC(C)C[C@@H]1NC(=O)[C@@H]2CCCN2C(=O)[C@H]2CCCN2C(=O)[C@H](CO)NC(=O)[C@@H]2CCC(=O)NC[C@H](NC1=O)C(=O)N[C@@H](Cc1ccc(O)cc1)C(=O)N[C@@H](CCN)C(=O)N[C@@H](CCCN)C(=O)N[C@H](CCN)C(=O)N[C@@H](CCN)C(=O)N[C@@H](Cc1c[nH]c3ccccc13)C(=O)N[C@@H](CCN)C(=O)N[C@@H](C(C)(C)C)C(=O)N2 [Example 29, cyclo(-Leu-Dap-Tyr-Dab-Orn-^DDab-Dab-Trp-Dab-tBuGly-Glu-Ser-^DPro-Pro-)] (cyclo(L[Dap]Y[Dab][Orn][dDab][Dab]W[Dab][Tle]ES[dP]P); lactam 2-11)	1	1	0.5	0.5				
CC(C)[C@@H]1NC(=O)[C@H](C)N(C)C(=O)[C@H]2CCCN2C(=O)[C@H](CO)NC(=O)[C@@H]2CSSC[C@H](NC1=O)C(=O)N[C@@H](Cc1ccc(O)cc1)C(=O)N[C@@H](CCN)C(=O)N[C@@H](CN)C(=O)N[C@H](CCN)C(=O)N[C@@H](CCN)C(=O)N[C@@H](Cc1c[nH]c3ccccc13)C(=O)N[C@@H](CCN)C(=O)N[C@@H](C(C)(C)C)C(=O)N2 [Example 9, cyclo(-Val-Cys-Tyr-Dab-Dap-^DDab-Dab-Trp-Dab-tBuGly-Cys-Ser-^DPro-NMeAla-)] (cyclo(CS[dP][NMeA]VCY[Dab][Dap][dDab][Dab]W[Dab][Tle]); disulfide 1-6)	1	0.5	1	6				
CC[C@H](C)[C@@H]1NC(=O)[C@H](Cc2ccc(O)cc2)NC(=O)[C@H]2CCCN2C(=O)[C@H](CO)NC(=O)[C@@H]2CSSC[C@H](NC1=O)C(=O)N[C@@H](Cc1ccc(O)cc1)C(=O)N[C@@H](CCN)C(=O)N[C@@H](CCCN)C(=O)N[C@H](CCN)C(=O)N[C@@H](CCN)C(=O)N[C@@H](Cc1c[nH]c3ccccc13)C(=O)N[C@@H](CCN)C(=O)N[C@@H](C(C)(C)C)C(=O)N2 [Example 11, cyclo(-Ile-Cys-Tyr-Dab-Orn-^DDab-Dab-Trp-Dab-tBuGly-Cys-Ser-^DPro-Tyr-)] (HELM PEPTIDE1{C.S.[dP].Y.I.C.Y.[Dab].[Orn].[NCC[C@@H](N[*:1])C(=O)[*:2]].[Dab].W.[Dab].[CC(C)(C)[C@H](N[*:1])C(=O)[*:2]]}$PEPTIDE1,PEPTIDE1,1:R3-6:R3|PEPTIDE1,PEPTIDE1,1:R1-14:R2$$$V2.0)	1	2	0.5	1				
CC(C)C[C@@H]1NC(=O)[C@@H]2CCCN2C(=O)[C@H]2CCCN2C(=O)[C@H](CO)NC(=O)[C@@H]2CNC(=O)CC[C@H](NC1=O)C(=O)N[C@@H](Cc1ccc(O)cc1)C(=O)N[C@@H](CCN)C(=O)N[C@@H](CCCN)C(=O)N[C@@H](CCN)C(=O)N[C@@H](CCN)C(=O)N[C@@H](Cc1c[nH]c3ccccc13)C(=O)N[C@@H](CCN)C(=O)N[C@@H](C(C)(C)C)C(=O)N2 [Example 18, cyclo(-Leu-Glu-Tyr-Dab-Orn-Dab-Dab-Trp-Dab-tBuGly-Dap-Ser-^DPro-Pro-)] (HELM PEPTIDE1{L.E.Y.[Dab].[Orn].[Dab].[Dab].W.[Dab].[CC(C)(C)[C@H](N[*:1])C(=O)[*:2]].[O=C([C@H](CN[*:3])N[*:1])[*:2]].S.[dP].P}$PEPTIDE1,PEPTIDE1,2:R3-11:R3|PEPTIDE1,PEPTIDE1,1:R1-14:R2$$$V2.0)	3	2	0.5	0				
